ChEMBL document CHEMBL1148059, “Isolation and structure elucidation of new nitrile and mustard oil glycosides from Moringa oleifera and their effect on blood pressure” (1994)
Calls of active or inactive are those of the source. No cut-off for these calls is given here.

What was measured:
Rattus norvegicus [1] = test: Hypotensive activity against normotensive anesthetized Wistar rat assessed as reduction in mean arterial blood pressure at 3 mg/kg, iv; set-up: scale not given: the % may be the effect or the level left
Rattus norvegicus [2] = test: Hypotensive activity against normotensive anesthetized Wistar rat assessed as reduction in mean arterial blood pressure up to 5 mg/kg, iv
Rattus norvegicus [3] = test: Hypotensive activity against normotensive anesthetized Wistar rat assessed as reduction in mean arterial blood pressure up to 5 ug/kg, iv; type: functional, organism-based
Rattus norvegicus [4] = test: Hypotensive activity against normotensive anesthetized Wistar rat assessed as reduction in mean arterial blood pressure at 3 ug/kg, iv; type: functional; set-up: scale not given: the % may be the effect or the level left
Rattus norvegicus [5] = test: Hypotensive activity against normotensive anesthetized Wistar rat assessed as reduction in mean arterial blood pressure at 1 ug/kg, iv; type: functional; set-up: scale not given: the % may be the effect or the level left

What does the source list for CC(=O)O[C@@H]1[C@@H](O)[C@@H](O)[C@H](Oc2ccc(CN=C=S)cc2)O[C@H]1C?
Activity (Rattus norvegicus [1]): 34.91%; Activity (Rattus norvegicus [2]): Active

For CC(=O)O[C@@H]1[C@@H](O)[C@@H](O)[C@H](Oc2ccc(CC#N)cc2)O[C@H]1C, which Activity (Rattus norvegicus [2]) is on record?
Its Activity is “inactive”.

CCOC(=S)NCc1ccc(O[C@@H]2O[C@@H](C)[C@H](OC(C)=O)[C@@H](O)[C@H]2O)cc1 [listing 1 of 3 here] was tested. Which Activity (Rattus norvegicus [3]) did it give?
Its Activity is “Active”.

Which Activity (Rattus norvegicus [4]) does the source give for CCOC(=S)NCc1ccc(O[C@@H]2O[C@@H](C)[C@H](OC(C)=O)[C@@H](O)[C@H]2O)cc1 [listing 2 of 3 here] here?
Its Activity is 40.33%.

C[C@@H]1O[C@@H](Oc2ccc(CC#N)cc2)[C@H](O)[C@H](O)[C@H]1O was tested. Which Activity (Rattus norvegicus [2]) did it give?
The Activity was “inactive”.

For CCOC(=S)NCc1ccc(O[C@@H]2O[C@@H](C)[C@H](OC(C)=O)[C@@H](O)[C@H]2O)cc1 [listing 3 of 3 here], which Activity (Rattus norvegicus [4]) is on record?
Its Activity is 37.51%.

How did the Activity (Rattus norvegicus [5]) turn out when CC(=O)OCC[N+](C)(C)C [ACETYLCHOLINE] was run?
Its Activity is 59.5%.
